Key:
[1] = tested on: esophageal injury in reflux esophagitis models; experiment: Inhibitory effects against esophageal injury in reflux esophagitis models; format: in vivo, Sprague Dawley (SD) rats; settings: Rattus norvegicus; percent inhibition of esophageal injury area vs control; rats, 2 mg/kg oral 1 hour before ligation, measured 6 hours after ligation; read-out: GERD (rat/mpk)
Procedure: Test Example 3: Inhibitory Effects against Esophageal Injury in Reflux Esophagitis Models The inhibitory effects of the compounds of the present disclosure against esophageal injury in reflux esophagitis models were evaluated according to the method of Nakamura [Nakamura K, et al., Effects of sodium polyacrylate (PANa) on acute esophagitis by gastric juice in rats, Jpn J Pharmacology, 1982, 32, 445-56]. Male Sprague Dawley (SD) rats (weighing 180-210 g) were divided into X groups (n=6) and fasted without water for 24 hours. Then, the control group was administered orally with only 10% DMSO, 10% Cremophor EL and 80% water, and the other groups were administered orally with 2 mg/kg/2 ml of each test compound together with 10% DMSO, 10% Cremophor EL and 80% water. At 1 hour after administration of the excipients and each compound, the abdominal cavity of each rate was incised under isoflurane anesthesia, and the pylorus was ligated, and the boundary between the anterior portion and the body was also ligated. At 6 hours after ligation, the test animals were euthanized, and the esophagus ranging from the thyroid to the cardiac portion was carefully extracted. The extracted esophagus was incised in a longitudinal direction and spread so as to expose the mucosa and was then fixed, after which the area of esophageal injury was measured. Percent (%) inhibitory activity of test compounds={(total esophageal injury area of control group−esophageal injury area of group treated with test compound)/total esophageal injury area of control group}×100.

[2] = tested on: histamine-stimulated gastric acid secretion; experiment: Inhibitory effects against histamine-stimulated gastric acid secretion in pylorus-ligated rats (Shay's rat models); format: in vivo, Sprague-Dawley (SD) rats; settings: percent inhibition of total acid output vs control, 2 mg/kg oral 1 hour before pylorus ligation, histamine 30 mg/kg s.c., 3 hours after ligation
Procedure: Test Example 4: Inhibitory Effects against Histamine-Stimulated Gastric Acid Secretion in Pylorus-Ligated Rats The inhibitory effects of the compounds of the present disclosure against histamine-stimulated gastric acid secretion were evaluated using Shay's rat models [Shay H, et al. A simple method for the uniform production of gastric ulceration in the rat, Gastroenterology, 1945, 5, 43-61]. Male Sprague-Dawley (SD) rats (weighing 180-210 g) were divided into X groups (n=7) and fasted with only water access for 24 hours. At 1 hour before pylorus ligation, the control group was administered orally with only 10% DMSO, 10% Cremophor EL and 80% water, and the other groups were administered orally with 2 mg/kg/2 ml of each compound together with 10% DMSO, 10% Cremophor EL and 80% water. The abdominal cavity of each rate was incised under isoflurane anesthesia, and the pylorus was ligated. Immediately after ligation, histamine 2HCl was administered subcutaneously to each rat at a dose of 30 mg/kg/10 ml. At 3 hours after ligation, the test animals were euthanized, and the gastric content was extracted. The extracted gastric content was centrifuged at 3,000×g for 10 minutes, and the supernatant was collected to obtain gastric juice. Next, the acidity of the gastric juice was determined based on the volume of (ueq/ml) of 0.1 N—NaOH required for automatic titration of the gastric juice to pH 7.0, and the acidity of the gastric juice was multiplied by the amount of the gastric juice to determine total acid output. Percent (%) inhibitory activity of test compounds={(total acid output in control group−total acid output in group treated with test compound)/total acid output in control group}×100.

[3] = molecular target: T1, proton pump (H+/K+-ATPase), porcine gastric vesicles (Sus scrofa, UniProt P19156); experiment: Inhibitory effects against proton pump (H+/K+-ATPase) activity, malachite green phosphate assay; format: biochemical; settings: pH 6.4, 37° C., K+-dependent activity
T1 construct: reaction buffer (50 mmol/L Tris-Hepes buffer, pH 6.4) containing porcine gastric vesicles; from tissue; host or cells: porcine gastric mucosa (gastric vesicles prepared by centrifugation)
T1 sequence (P19156 2-1034 limits assumed): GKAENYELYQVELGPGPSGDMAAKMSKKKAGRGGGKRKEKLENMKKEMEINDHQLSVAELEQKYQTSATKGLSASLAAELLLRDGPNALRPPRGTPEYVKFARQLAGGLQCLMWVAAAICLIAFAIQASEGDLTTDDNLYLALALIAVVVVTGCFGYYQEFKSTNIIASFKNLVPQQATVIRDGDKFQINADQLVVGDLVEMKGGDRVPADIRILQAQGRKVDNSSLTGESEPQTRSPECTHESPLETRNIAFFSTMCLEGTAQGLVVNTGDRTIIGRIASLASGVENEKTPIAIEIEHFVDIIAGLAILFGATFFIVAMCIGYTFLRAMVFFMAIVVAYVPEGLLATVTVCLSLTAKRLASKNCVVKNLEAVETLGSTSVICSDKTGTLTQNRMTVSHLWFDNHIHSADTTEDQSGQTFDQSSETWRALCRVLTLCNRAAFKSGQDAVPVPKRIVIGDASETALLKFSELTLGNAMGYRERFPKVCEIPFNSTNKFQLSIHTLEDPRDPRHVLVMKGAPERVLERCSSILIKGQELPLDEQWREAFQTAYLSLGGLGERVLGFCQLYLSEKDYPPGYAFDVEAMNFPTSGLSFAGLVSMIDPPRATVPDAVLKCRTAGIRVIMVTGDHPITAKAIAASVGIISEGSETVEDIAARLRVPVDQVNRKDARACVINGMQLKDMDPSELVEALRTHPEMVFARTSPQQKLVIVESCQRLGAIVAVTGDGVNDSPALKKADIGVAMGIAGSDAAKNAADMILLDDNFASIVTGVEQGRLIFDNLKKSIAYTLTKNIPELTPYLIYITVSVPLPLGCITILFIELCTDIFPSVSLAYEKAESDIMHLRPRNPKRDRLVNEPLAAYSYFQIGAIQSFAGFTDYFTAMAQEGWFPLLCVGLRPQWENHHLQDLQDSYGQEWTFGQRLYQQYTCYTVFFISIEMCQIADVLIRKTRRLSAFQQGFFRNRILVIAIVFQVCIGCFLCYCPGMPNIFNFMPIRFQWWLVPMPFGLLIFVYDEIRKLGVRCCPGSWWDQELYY
T1 sequence (P18434 whole entry partner): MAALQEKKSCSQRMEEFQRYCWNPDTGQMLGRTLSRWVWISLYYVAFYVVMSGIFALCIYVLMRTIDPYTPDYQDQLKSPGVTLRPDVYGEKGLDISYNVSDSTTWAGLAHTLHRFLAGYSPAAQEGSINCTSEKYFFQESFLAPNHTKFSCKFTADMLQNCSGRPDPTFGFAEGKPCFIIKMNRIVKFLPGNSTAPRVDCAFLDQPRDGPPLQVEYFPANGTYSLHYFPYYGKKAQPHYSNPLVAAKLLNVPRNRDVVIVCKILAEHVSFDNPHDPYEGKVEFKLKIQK
Procedure: Test Example 1: Preparation of Gastric Vesicles
Gastric vesicles used in the experiment were prepared by separation from porcine gastric mucosa according to a centrifugation method [Saccomani G, et al., A Nonelectrogenic H^+ Pump in Plasma Membranes of Hog Stomach, J Biol Chem., 1976, 251 (23), 7690-8]. Next, the protein content of the gastric vesicles was quantified using a bicinchoninic acid kit [Smith P K, et al., Measurement of protein using bicinchoninic acid, Anal Biochem., 1985, 150 (1), 76-85)].
Test Example 2: Measurement of Inhibitory Effects Against Proton Pump (H^+/K^+-ATPase) Activity
The inhibitory effects of the compounds against proton pump activity were calculated based on the pump activity determined in the presence of K^+ ions excluding the pump activity determined in the absence of K^+ ions. The inhibitory effects against proton pump activity were measured in 96-well plates, and all reactions were performed with a reaction volume of […] at 37° C. Specifically, 10 μm of valinomycin and each concentration of each compound were pre-incubated in a reaction buffer (50 mmol/L Tris-Hepes buffer, pH 6.4) containing porcine gastric vesicles for 15 minutes. For negative and positive control groups, 1% DMSO was added to buffer, and for test groups, 1% DMSO and a dilution of each concentration of each compound were added. Next, 0.2 mmol/L of adenosine triphosphate (ATP) was added to the reaction buffer and incubated at 37° C. for 40 minutes. After completion of the incubation, a malachite green solution was added to the reaction buffer and incubated for 30 minutes, and the amount of inorganic phosphate in the reaction buffer was measured by colorimetry using a malachite green phosphate assay Kit (Bioassay Systems). For colorimetry, the OD (optical density) at 620 nm was measured using a microplate reader [Synergy H4, hybrid multimode microplate reader, BioTek]. The percent inhibition of proton pump (H^+/K^+-ATPase) was determined based on the OD value of the control group and the OD values of various concentrations of the test compounds, and the IC50 of each test compound was calculated using the Logistic 4-parameter function of Sigmaplot 8.0 program.

Row | Structure (SMILES) | inhibition in vivo at 2 mg/kg [1] [%] | acid output (rat/2 mpk) [2] [%] | IC50 [3] [nM]
1 | Cc1cccc(C)c1CNc1cc(C(=O)N2CC(F)C2)cn2c(C)c(C)nc12 [Example 7, {8-[(2,6-dimethylbenzyl)amino]-2,3-dimethylimidazo[1,2-a]pyridin-6-yl}(3-fluoroazetidin-1-yl)methanone] | 100 | 91 | 55
2 | Cc1cc(F)ccc1CNc1cc(C(=O)N2CC(CO)C2)cn2c(C)c(C)nc12 [Example 33, {8-[(4-fluoro-2-methylbenzyl)amino]-2,3-dimethylimidazo[1,2-α]pyridin-6-yl}(3-(hydroxymethyl)azetidin-1-yl)methanone] | 92.7 |  | 143
3 | Cc1cc(F)cc(C)c1CNc1cc(C(=O)N2CC(F)C2)cn2c(C)c(C)nc12 [Example 36, {8-[(4-fluoro-2,6-dimethylbenzyl)amino]-2,3-dimethylimidazo[1,2-α]pyridin-6-yl}(3-fluoroazetidin-1-yl)methanone] | 98.2 |  | 29
4 | Cc1cccc(C)c1CNc1cc(C(=O)N2CCC2)cn2c(C)c(C)nc12 [Example 6, azetidin-1-yl{8-[(2,6-dimethylbenzyl)amino]-2,3-dimethylimidazo[1,2-α]pyridin-6-yl}methanone] | 100 | 94 | 17
5 | Cc1cccc(C)c1CNc1cc(C(=O)N2CC3(COC3)C2)cn2c(C)c(C)nc12 [Example 22, {8-[(2,6-dimethylbenzyl)amino]-2,3-dimethylimidazo[1,2-α]pyridin-6-yl}(2-oxa-6-azaspiro[3.3]heptan-6-yl)methanone] |  |  | 79
6 | Cc1cc(F)ccc1CNc1cc(C(=O)N2CC(C)C2)cn2c(C)c(C)nc12 [Example 30, {8-[(4-fluoro-2-methylbenzyl)amino]-2,3-dimethylimidazo[1,2-α]pyridin-6-yl}(3-methylazetidin-1-yl)methanone] |  |  | 271
7 | Cc1cccc(C)c1CNc1cc(C(=O)N2CC(C)C2)cn2c(C)c(C)nc12 [Example 8, {8-[(2,6-dimethylbenzyl)amino]-2,3-dimethylimidazo[1,2-α]pyridin-6-yl}(3-methylazetidin-1-yl)methanone] | 95.4 |  | 96
8 | CC(=O)C1CN(C(=O)c2cc(NCc3c(C)cccc3C)c3nc(C)c(C)n3c2)C1 [Example 18, 1-{1-[8-({2,6-dimethylbenzyl}amino)-2,3-dimethylimidazo[1,2-α]pyridine-6-carbonyl]azetidin-3-yl}ethanone] |  |  | 140
9 | Cc1ccccc1CNc1cc(C(=O)N2CC(O)C2)cn2c(C)c(C)nc12 [Example 23, {2,3-dimethyl-8-[(2-methylbenzyl)amino]imidazo[1,2-α]pyridin-6-yl}(3-hydroxyazetidin-1-yl)methanone] |  |  | 374
10 | Cc1cccc(C)c1CNc1cc(C(=O)N2CCC2CO)cn2c(C)c(C)nc12 (stereo not drawn) [Example 17, {8-[(2,6-dimethylbenzyl)amino]-2,3-dimethylimidazo[1,2-α]pyridin-6-yl}[2-(hydroxymethyl)azetidin-1-yl]methanone] |  |  | 180
11 | Cc1cccc(C)c1CNc1cc(C(=O)N2CC(CO)C2)cn2c(C)c(C)nc12 [Example 11, {8-[(2,6-dimethylbenzyl)amino]-2,3-dimethylimidazo[1,2-α]pyridin-6-yl}[3-(hydroxymethyl)azetidin-1-yl]methanone] | 97.6 | 78 | 39
12 | Cc1ccc(F)c(C)c1CNc1cc(C(=O)N2CC(CO)C2)cn2c(C)c(C)nc12 [Example 44, {8-[(3-fluoro-2,6-dimethylbenzyl)amino]-2,3-dimethylimidazo[1,2-α]pyridin-6-yl}[3-(hydroxymethyl)azetidin-1-yl]methanone] |  |  | 61
13 | Cc1cc(F)cc(C)c1CNc1cc(C(=O)N2CC(CO)C2)cn2c(C)c(C)nc12 [Example 39, {8-[(4-fluoro-2,6-dimethylbenzyl)amino]-2,3-dimethylimidazo[1,2-α]pyridin-6-yl}[3-(hydroxymethyl)azetidin-1-yl]methanone] | 98.4 |  | 24
14 | Cc1ccc(F)c(C)c1CNc1cc(C(=O)N2CCC2)cn2c(C)c(C)nc12 [Example 42, azetidin-1-yl{8-[(3-fluoro-2,6-dimethylbenzyl)amino]-2,3-dimethylimidazo[1,2-α]pyridin-6-yl}methanone] |  |  | 85
15 | Cc1cccc(C)c1CNc1cc(C(=O)N2CC(O)C2)cn2c(C)c(C)nc12 [Example 1, {8-[(2,6-Dimethylbenzyl)amino]-2,3-dimethylimidazo[1,2-α]pyridin-6-yl}(3-hydroxyazetidin-1-yl)methanone] | 84 | 71 | 20
16 | Cc1cccc(C)c1CNc1cc(C(=O)N2CC(C(C)(C)O)C2)cn2c(C)c(C)nc12 [Example 16, {8-[(2,6-dimethylbenzyl)amino]-2,3-dimethylimidazo[1,2-α]pyridin-6-yl}[3-(2-hydroxypropan-2-yl)azetidin-1-yl]methanone] |  |  | 122
17 | Cc1cc(F)cc(C)c1CNc1cc(C(=O)N2CC(O)C2)cn2c(C)c(C)nc12 [Example 34, {8-[(4-fluoro-2,6-dimethylbenzyl)amino]-2,3-dimethylimidazo[1,2-α]pyridin-6-yl}(3-hydroxyazetidin-1-yl)methanone] | 91.4 |  | 28
18 | Cc1cccc(C)c1CNc1cc(C(=O)N2CC(C)(O)C2)cn2c(C)c(C)nc12 [Example 9, {8-[(2,6-dimethylbenzyl)amino]-2,3-dimethylimidazo[1,2-α]pyridin-6-yl}(3-hydroxy-3-methylazetidin-1-yl)methanone] | 77.2 |  | 69
19 | Cc1cccc(C)c1CNc1cc(C(=O)N2CC(C)(CO)C2)cn2c(C)c(C)nc12 [Example 14, {8-[(2,6-dimethylbenzyl)amino]-2,3-dimethylimidazo[1,2-α]pyridin-6-yl}[3-(hydroxymethyl)-3-methylazetidin-1-yl]methanone] |  |  | 104

Reference: patent US10696671B2, “Imidazo[1,2-A]pyridine derivatives, methods for preparing the same and use thereof” (Jeil Pharmaceutical Co., Ltd., priority 2016, dated 2020)
